Test results published in patent US8952024B2, “Herbicidal pyrimidone derivatives” (E I du Pont de Nemours and Company, priority 2009, dated 2015).

Columns and labels:
Type in all cases: in vivo
corn (Zea mays) = test: Test A pre-/postemergence plant response
Outline: (§1)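 Seeds planted in loam soil/sand blend; test chemicals in non-phytotoxic solvent mixture with surfactant applied as directed soil spray preemergence and, concurrently, postemergence to plants 2–10 cm tall at one- to two-leaf stage. Greenhouse ~10 days; visual injury vs untreated controls, 0 (no effect) to 100 (complete control).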

[1] = tested on: giant foxtail (Setaria faberii); test: Test A pre-/postemergence plant response
Outline: as §1

[2] = tested on: large crabgrass (Digitaria sanguinalis); test: Test A pre-/postemergence plant response
Outline: as §1

[3] = tested on: morningglory (Ipomoea spp.); test: Test A pre-/postemergence plant response
Outline: as §1

[4] = tested on: velvetleaf (Abutilon theophrasti); test: Test A pre-/postemergence plant response
Outline: as §1

[5] = tested on: wheat (Triticum aestivum); test: Test A pre-/postemergence plant response
Outline: as §1

[6] = tested on: canarygrass (Phalaris minor); test: Test B postemergence plant response; details: for Canarygrass plant response rating (0 to 100 scale): 62 g ai/ha, 0 is no effect
Outline: (§2)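 Plants at the 1- to 4-leaf stage (2 to 18 cm tall), grown in pots of peat moss/vermiculite medium with wetting agent and starter nutrients, received postemergence applications of test chemicals. After 13 to 15 days in a greenhouse, injury was rated visually against untreated controls on a 0 (no effect) to 100 (complete control) scale.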

[7] = tested on: chickweed (Stellaria media); test: Test B postemergence plant response; details: for Chickweed plant response rating (0 to 100 scale): 62 g ai/ha, 0 is no effect
Outline: as §2

[8] = tested on: windgrass (Apera spica-venti); test: Test B postemergence plant response; details: for Windgrass plant response rating (0 to 100 scale): 62 g ai/ha, 0 is no effect
Outline: as §2

[9] = tested on: winter barley (Hordeum vulgare); test: Test B postemergence plant response; details: for Barley plant response rating (0 to 100 scale): 62 g ai/ha, 0 is no effect
Outline: as §2

[10] = Postemergence, 125 g ai/ha, 0 to 100 scale where 0 is no effect and 100 is complete control
[11] = Postemergence, 500 g ai/ha, visual injury, 0 to 100 scale (0 no effect, 100 complete control), approx. ten days
[12] = Preemergence, 125 g ai/ha, 0 to 100 scale, 0 = no effect, 100 = complete control
[13] = Preemergence, 500 g ai/ha, 0 to 100 scale, 0 = no effect, 100 = complete control
[14] = 16 g ai/ha, Postemergence, 0 to 100 scale
[15] = Postemergence, 31 g ai/ha, 0 to 100 scale (0 no effect, 100 complete control)
[16] = Postemergence, 125 g ai/ha, scale 0 to 100 (0 no effect, 100 complete control)
[17] = postemergence, 100 is complete control, 13 to 15 days
[18] = Postemergence, 500 g ai/ha, 0 to 100 scale, 0 = no effect, 100 = complete control, approx. ten days
[19] = Preemergence, 500 g ai/ha, visual injury, 0 to 100 scale (0 no effect, 100 complete control), approx. ten days
[20] = 31 g ai/ha, postemergence, scale 0 to 100, 0 is no effect, 100 is complete control
[21] = Postemergence, 125 g ai/ha, visual rating after 13 to 15 days, scale 0 (no effect) to 100 (complete control)
[22] = Postemergence, 250 g ai/ha, scale 0 to 100 (0 no effect, 100 complete control)
[23] = Postemergence, 250 g ai/ha, scale 0 to 100 (0 no effect, 100 complete control), 13 to 15 days

SMILES: O=C1CCCC(O)=C1C(=O)c1cnc(-c2ccccc2)n(C2CC[S+]([O-])CC2)c1=O (mixture of isomers) [Compound 169, 5-[(2-hydroxy-6-oxo-1-cyclohexen-1-yl)carbonyl]-2-phenyl-3-(trans/cis-tetrahydro-1-oxido-2H-thiopyran-4-yl)-4(3H)-pyrimidinone]
- Plant response rating, Corn (corn (Zea mays); [10]): 0
- Corn plant response rating (corn (Zea mays); [11]): 30
- Plant response rating, Corn (corn (Zea mays); [12]): 0
- Plant response rating, Corn (corn (Zea mays); [13]): 20
- Plant response rating, Foxtail, Giant [1, 10]: 80
- Foxtail, Giant plant response rating [1, 11]: 100
- Plant response rating, Foxtail, Giant [1, 12]: 40
- Plant response rating, Foxtail, Giant [1, 13]: 50
- Plant response rating, Crabgrass, Large [2, 10]: 90
- Crabgrass, Large plant response rating [2, 11]: 100
- Plant response rating, Crabgrass, Large [2, 12]: 40
- Plant response rating, Crabgrass, Large [2, 13]: 40
- Plant response rating, Morningglory [3, 10]: 100
- Morningglory plant response rating [3, 11]: 100
- Plant response rating, Morningglory [3, 12]: 0
- Plant response rating, Morningglory [3, 13]: 20
- Plant response rating, Velvetleaf [4, 10]: 100
- Velvetleaf plant response rating [4, 11]: 100
- Plant response rating, Velvetleaf [4, 12]: 20
- Plant response rating, Velvetleaf [4, 13]: 50
- Plant response rating, Wheat [5, 10]: 20
- Wheat plant response rating [5, 11]: 20
- Plant response rating, Wheat [5, 12]: 0
- Plant response rating, Wheat [5, 13]: 0
- Plant response rating, Canarygrass [6, 14]: 5
- Plant response rating, Canarygrass [6, 15]: 40
- Plant response rating, Canarygrass [6, 16]: 80
- Plant response rating, Chickweed [7, 14]: 90
- Plant response rating, Chickweed [7, 15]: 100
- Plant response rating, Chickweed [7, 16]: 100
- Plant response rating, Windgrass [8, 14]: 5
- Plant response rating, Windgrass [8, 15]: 15
- Plant response rating, Windgrass [8, 16]: 55
- Plant response rating, Barley [9, 14]: 0
- Barley plant response rating (0 to 100 scale) [9, 17]: 0
- Plant response rating, Barley [9, 15]: 0
- Plant response rating, Barley [9, 16]: 0

SMILES: CCCc1ncc(C(=O)C2=C(O)CCCC2=O)c(=O)n1-c1cccc(C)c1 [Compound 79]
- Plant response rating, Corn (corn (Zea mays); [10]): 10
- Plant response rating, Corn (corn (Zea mays); [18]): 60
- Plant response rating, Corn (corn (Zea mays); [12]): 0
- Plant response rating, Corn (corn (Zea mays); [19]): 0
- Plant response rating, Foxtail, Giant [1, 10]: 50
- Plant response rating, Foxtail, Giant [1, 18]: 80
- Plant response rating, Foxtail, Giant [1, 12]: 0
- Plant response rating, Foxtail, Giant [1, 19]: 50
- Plant response rating, Crabgrass, Large [2, 10]: 80
- Plant response rating, Crabgrass, Large [2, 18]: 90
- Plant response rating, Crabgrass, Large [2, 12]: 50
- Plant response rating, Crabgrass, Large [2, 19]: 100
- Plant response rating, Morningglory [3, 10]: 100
- Plant response rating, Morningglory [3, 18]: 100
- Plant response rating, Morningglory [3, 12]: 0
- Plant response rating, Morningglory [3, 19]: 50
- Plant response rating, Velvetleaf [4, 10]: 100
- Plant response rating, Velvetleaf [4, 18]: 100
- Plant response rating, Velvetleaf [4, 12]: 70
- Plant response rating, Velvetleaf [4, 19]: 100
- Plant response rating, Wheat [5, 10]: 0
- Plant response rating, Wheat [5, 18]: 50
- Plant response rating, Wheat [5, 12]: 0
- Plant response rating, Wheat [5, 19]: 30
- Plant response rating, Canarygrass [6, 20]: 15
- Canarygrass plant response rating (0 to 100 scale) [6, 17]: 30
- Plant response rating, Canarygrass [6, 21]: 35
- Plant response rating, Canarygrass [6, 22]: 50
- Plant response rating, Chickweed [7, 20]: 80
- Chickweed plant response rating (0 to 100 scale) [7, 17]: 95
- Plant response rating, Chickweed [7, 21]: 95
- Plant response rating, Chickweed [7, 22]: 98
- Plant response rating, Windgrass [8, 20]: 50
- Windgrass plant response rating (0 to 100 scale) [8, 17]: 65
- Plant response rating, Windgrass [8, 21]: 65
- Plant response rating, Windgrass [8, 22]: 90
- Plant response rating, Barley [9, 20]: 5
- Barley plant response rating (0 to 100 scale) [9, 17]: 30
- Plant response rating, Barley [9, 21]: 35
- Plant response rating, Barley [9, 22]: 55

SMILES: O=C1CCCC(O)=C1C(=O)c1cnc(-c2ccccc2)n(C2CCOCC2)c1=O [Compound 129]
- Plant response rating, Corn (corn (Zea mays); [10]): 20
- Plant response rating, Corn (corn (Zea mays); [18]): 50
- Plant response rating, Corn (corn (Zea mays); [12]): 0
- Plant response rating, Corn (corn (Zea mays); [19]): 0
- Plant response rating, Foxtail, Giant [1, 10]: 90
- Plant response rating, Foxtail, Giant [1, 18]: 90
- Plant response rating, Foxtail, Giant [1, 12]: 40
- Plant response rating, Foxtail, Giant [1, 19]: 80
- Plant response rating, Crabgrass, Large [2, 10]: 90
- Plant response rating, Crabgrass, Large [2, 18]: 90
- Plant response rating, Crabgrass, Large [2, 12]: 70
- Plant response rating, Crabgrass, Large [2, 19]: 90
- Plant response rating, Morningglory [3, 10]: 100
- Plant response rating, Morningglory [3, 18]: 100
- Plant response rating, Morningglory [3, 19]: 90
- Plant response rating, Velvetleaf [4, 10]: 100
- Plant response rating, Velvetleaf [4, 18]: 100
- Plant response rating, Velvetleaf [4, 12]: 80
- Plant response rating, Velvetleaf [4, 19]: 90
- Plant response rating, Wheat [5, 10]: 0
- Plant response rating, Wheat [5, 18]: 20
- Plant response rating, Wheat [5, 12]: 0
- Plant response rating, Wheat [5, 19]: 0
- Canarygrass plant response rating (0 to 100 scale) [6, 17]: 0
- Plant response rating, Canarygrass [6, 15]: 0
- Plant response rating, Canarygrass [6, 16]: 0
- Plant response rating, Canarygrass [6, 23]: 0
- Chickweed plant response rating (0 to 100 scale) [7, 17]: 85
- Plant response rating, Chickweed [7, 15]: 85
- Plant response rating, Chickweed [7, 16]: 90
- Plant response rating, Chickweed [7, 23]: 100
- Windgrass plant response rating (0 to 100 scale) [8, 17]: 60
- Plant response rating, Windgrass [8, 15]: 45
- Plant response rating, Windgrass [8, 16]: 80
- Plant response rating, Windgrass [8, 23]: 85
- Barley plant response rating (0 to 100 scale) [9, 17]: 0
- Plant response rating, Barley [9, 15]: 0
- Plant response rating, Barley [9, 16]: 0
- Plant response rating, Barley [9, 23]: 0
